Drawing on the OligoGym collection, this text covers target mRNA inhibition for 99 sequences.

“And” between values parts separate entries of the source, which are not always exact repeats. Equal values may be shown once. After the bases stand the sugars from the 5' end (letter, count) and the backbone: PS all phosphorothioate, else s phosphorothioate and o phosphodiester by linkage. Methylation of C is not given here. k = constrained ethyl (cEt); d = 2'-deoxy (DNA)

The target of the data set is MALAT1. The following applies: ASO, A431, 0.005 µM.
In the case of AGTCCTGCGACTTGCT (sugars k3 d10 k3, PS), the target mRNA inhibition came to 26%.

Take TGCAAGGTCTCATACA (sugars k3 d10 k3, PS): the target mRNA inhibition worked out at 32%.

For GCCAACTAATTGCCAA (sugars k3 d10 k3, PS), the target mRNA inhibition amounted to 33%.

Take CAGGTCATCTATTCAC (sugars k3 d10 k3, PS): the target mRNA inhibition was 51% and 72%.

Turning to TCGGTTAAAAATAGGT (sugars k3 d10 k3, PS), the target mRNA inhibition was 16%.

Take AAACGGGTCATCAAAC (sugars k3 d10 k3, PS): the target mRNA inhibition came out at 19%.

Turning to CACAGGAACAAGTCCT (sugars k3 d10 k3, PS), the target mRNA inhibition is 16%.

As for ACTTCCGTTACGAAAG (sugars k3 d10 k3, PS), the target mRNA inhibition was determined as 1%.

As to TATTGGTATTAATTCG (sugars k3 d10 k3, PS), the target mRNA inhibition was determined as 13%.

Turning to TTTATAGACGGAGAAC (sugars k3 d10 k3, PS), the target mRNA inhibition is -6%.

Regarding CTACTCCAAGCATTGG (sugars k3 d10 k3, PS), the target mRNA inhibition amounted to 27%.

On to TACTATCCCATCACTG (sugars k3 d10 k3, PS), for which the target mRNA inhibition turned out to be 42%.

As for TCTAACATAGTTCAAC (sugars k3 d10 k3, PS), the target mRNA inhibition was determined as 29%.

Turning to TTAAGAGAAGCCCAGG (sugars k3 d10 k3, PS), the target mRNA inhibition was determined as 24%.

TACACCCAGTGGCTCA (sugars k3 d10 k3, PS): the target mRNA inhibition came out at 30%.

Regarding CCTTTTCTAACATAGT (sugars k3 d10 k3, PS), the target mRNA inhibition was found to be 23%.

With ATTGTCTCAATTTGGC (sugars k3 d10 k3, PS), the target mRNA inhibition was 63% and 84%.

As to CCCAATGGAGGTATGA (sugars k3 d10 k3, PS), the target mRNA inhibition was 23%.

Take TAGCTTGGCCAAGTCT (sugars k3 d10 k3, PS): the target mRNA inhibition came out at 19%.

TTGCCCCTCCCCTTTA (sugars k3 d10 k3, PS): the target mRNA inhibition came to 42%.

Regarding AGTGTTCCTGCATGTA (sugars k3 d10 k3, PS), the target mRNA inhibition was 31%.

As for AAGTTTTCAGCAGTAG (sugars k3 d10 k3, PS), the target mRNA inhibition was determined as 8%.

As for CAGGCGAGCTGAGGCT (sugars k3 d10 k3, PS), the target mRNA inhibition came to 7%.

For TAGTACTATAGCATCT (sugars k3 d10 k3, PS), the target mRNA inhibition amounted to 49%.

For the sequence TCCAGTCCCTGAAGGT (sugars k3 d10 k3, PS), the target mRNA inhibition was 12%.

With GCATATGCAGATAATG (sugars k3 d10 k3, PS), the target mRNA inhibition was found to be 36%.

GTTACTTGCCAACTTG (sugars k3 d10 k3, PS): the target mRNA inhibition is 63% and 81%.

CCAAATTGCACTCGCT (sugars k3 d10 k3, PS): the target mRNA inhibition was 36%.

For TGCCATGGTTGATATT (sugars k3 d10 k3, PS), the target mRNA inhibition is 37%.

In the case of GTGGAAAGATTTGAGC (sugars k3 d10 k3, PS), the target mRNA inhibition turned out to be 17%.

As for GTAATTACTCTTGATC (sugars k3 d10 k3, PS), the target mRNA inhibition stood at 47%.

For the sequence CAGTCCTAGCTTCATC (sugars k3 d10 k3, PS), the target mRNA inhibition stood at 9%.

With CATATTTAACTTCCCC (sugars k3 d10 k3, PS), the target mRNA inhibition turned out to be 25%.

For the sequence TTCCTAGCTTCACCAC (sugars k3 d10 k3, PS), the target mRNA inhibition is 36%.

Turning to AACTCGCATCACCGGA (sugars k3 d10 k3, PS), the target mRNA inhibition was 21%.

Consider ACCCAGAAGTGTTTAC (sugars k3 d10 k3, PS), for which the target mRNA inhibition was found to be 16%.

For CTTTACACCTCAGTAC (sugars k3 d10 k3, PS), the target mRNA inhibition amounted to 38%.

For the sequence TCAGCCTTTATCACTC (sugars k3 d10 k3, PS), the target mRNA inhibition worked out at 13%.

Regarding TTTAGAGGGCCTCTAT (sugars k3 d10 k3, PS), the target mRNA inhibition stood at 17%.

Regarding CCTAGCTTCACCACCA (sugars k3 d10 k3, PS), the target mRNA inhibition came to 33%.

Consider CTTATCTGTTAACAGC (sugars k3 d10 k3, PS), for which the target mRNA inhibition came out at 43%.

ATCCCATCACTGAAGC (sugars k3 d10 k3, PS): the target mRNA inhibition came to 36%.

CCGCCGCCTTTGTGAG (sugars k3 d10 k3, PS): the target mRNA inhibition was 25%.

On to ATGACCCTACTGAAGA (sugars k3 d10 k3, PS), for which the target mRNA inhibition was 15%.

With AGGCTCGATGGAAAAA (sugars k3 d10 k3, PS), the target mRNA inhibition was determined as 28%.

GGAATTCGATCACCTT (sugars k3 d10 k3, PS): the target mRNA inhibition is 29%.

With AGGGATTTGAACCCCG (sugars k3 d10 k3, PS), the target mRNA inhibition was -3%.

On to ACCCTCTAAGAGACAT (sugars k3 d10 k3, PS), for which the target mRNA inhibition is 35%.

As to GTAGTAAGAATCTCAG (sugars k3 d10 k3, PS), the target mRNA inhibition is 80% and 71%.

Regarding GCCTGGTTAGGTATGA (sugars k3 d10 k3, PS), the target mRNA inhibition was determined as 21%.

For the sequence TACATGTTCCCACCCA (sugars k3 d10 k3, PS), the target mRNA inhibition stood at 39%.

For ATATTGTGCTGTTACC (sugars k3 d10 k3, PS), the target mRNA inhibition was -9%.

As to ACTGATCACTTTAGAG (sugars k3 d10 k3, PS), the target mRNA inhibition came to 36%.

As to TAAGTTGGTTTTAGTC (sugars k3 d10 k3, PS), the target mRNA inhibition was 78% and 92%.

GCTCACAAGGCAAATC (sugars k3 d10 k3, PS): the target mRNA inhibition is -4%.

Consider AATAGCAGCGGGATCA (sugars k3 d10 k3, PS), for which the target mRNA inhibition is 34%.

For TTATCCCTAACATGCA (sugars k3 d10 k3, PS), the target mRNA inhibition is 8%.

For the sequence AAGGCTCGATGGAAAA (sugars k3 d10 k3, PS), the target mRNA inhibition came out at 7%.

In the case of TCGCCTCCTCCGTGTG (sugars k3 d10 k3, PS), the target mRNA inhibition was 33%.

As to TCTATAGTCTGAAGAA (sugars k3 d10 k3, PS), the target mRNA inhibition came out at 26%.

As to ATGGAACTTGAATGCA (sugars k3 d10 k3, PS), the target mRNA inhibition turned out to be 1%.

For ACGGATTTTTACCAAC (sugars k3 d10 k3, PS), the target mRNA inhibition was found to be 34%.

Take CAATTAATGCTAGTCC (sugars k3 d10 k3, PS): the target mRNA inhibition is 28%.

Consider GCACAGCTCGGGCGAG (sugars k3 d10 k3, PS), for which the target mRNA inhibition was -20%.

On to CTCAATCCACTTGATC (sugars k3 d10 k3, PS), for which the target mRNA inhibition was determined as 32%.

In the case of GGCCAAGTCTGTTATG (sugars k3 d10 k3, PS), the target mRNA inhibition was -1%.

Consider GCATTGGAGATCAGCT (sugars k3 d10 k3, PS), for which the target mRNA inhibition was found to be 11%.

Regarding AGTTACTCCAGCATAA (sugars k3 d10 k3, PS), the target mRNA inhibition came to 31%.

Regarding TTCTACCGTTTTTCAG (sugars k3 d10 k3, PS), the target mRNA inhibition came to 10%.

With ATACCTTAACATCTTG (sugars k3 d10 k3, PS), the target mRNA inhibition amounted to 43%.

In the case of TATTTAAGAACTCCAC (sugars k3 d10 k3, PS), the target mRNA inhibition was 26%.

Turning to GTCAATTAATGCTAGT (sugars k3 d10 k3, PS), the target mRNA inhibition worked out at 41%.

As for ATTTTAAGGTTGCATC (sugars k3 d10 k3, PS), the target mRNA inhibition was 37%.

Consider CTCTGATCATAATCTC (sugars k3 d10 k3, PS), for which the target mRNA inhibition was determined as 35%.

For the sequence TAAGCGAATGGCTTTG (sugars k3 d10 k3, PS), the target mRNA inhibition was 7%.

Turning to CTTTTAATCATACTCC (sugars k3 d10 k3, PS), the target mRNA inhibition stood at 16%.

Consider AAAACGAATTCAGGGT (sugars k3 d10 k3, PS), for which the target mRNA inhibition is 25%.

For CATCAAGGATGTATAT (sugars k3 d10 k3, PS), the target mRNA inhibition was -4%.

With AATGGCGGACTTTCTC (sugars k3 d10 k3, PS), the target mRNA inhibition turned out to be 0%.

Turning to AAATCGCCATGGAAAG (sugars k3 d10 k3, PS), the target mRNA inhibition was determined as 1%.

With TAGGTATGAGCTTCAG (sugars k3 d10 k3, PS), the target mRNA inhibition amounted to 4%.

Regarding TACTCCATGAAGAAGC (sugars k3 d10 k3, PS), the target mRNA inhibition was -26%.

Take CTAACTTCTGCACCAC (sugars k3 d10 k3, PS): the target mRNA inhibition came out at 38%.

TTAAATTGATGGGCTT (sugars k3 d10 k3, PS): the target mRNA inhibition was 22%.

ATTAAAGTGTGATAGT (sugars k3 d10 k3, PS): the target mRNA inhibition came out at 17%.

As for ACTTTCCATTACGCAA (sugars k3 d10 k3, PS), the target mRNA inhibition turned out to be 9%.

ACATTCAAGCTGAACT (sugars k3 d10 k3, PS): the target mRNA inhibition is -5%.

As to GCCCACCCTCTAAGAG (sugars k3 d10 k3, PS), the target mRNA inhibition is 18%.

For CGCTTTCCCTGTGGCC (sugars k3 d10 k3, PS), the target mRNA inhibition was -2%.

TCAGACAAGATTCATG (sugars k3 d10 k3, PS): the target mRNA inhibition was found to be 31%.

Regarding TAGAGGGCCTCTATTG (sugars k3 d10 k3, PS), the target mRNA inhibition turned out to be 39%.

As to ACCCACAAACTTGCCA (sugars k3 d10 k3, PS), the target mRNA inhibition was -2%.

AAAACTCCCCCCCGCC (sugars k3 d10 k3, PS): the target mRNA inhibition was -4%.

GACACTTTCCTTGCCC (sugars k3 d10 k3, PS): the target mRNA inhibition was 48%.

With ATTCTTTTCTTCGCCT (sugars k3 d10 k3, PS), the target mRNA inhibition is 48%.

In the case of AGACCCCTGACTTTCT (sugars k3 d10 k3, PS), the target mRNA inhibition came to 22%.

Regarding GGTTTTAGTCACTGGA (sugars k3 d10 k3, PS), the target mRNA inhibition is 85% and 95%.

Consider GTAGACCAACTAAGCG (sugars k3 d10 k3, PS), for which the target mRNA inhibition turned out to be 26%.

For the sequence GCAGTTATATTAGGTT (sugars k3 d10 k3, PS), the target mRNA inhibition came out at 15%.
